According to the NIST ThermoML archive (doi:10.1021/je7001418):

Experiment: cn = amount concentration of the nth substance listed, in mol/dm3
Details: 298.15 K, 101.3 kPa, Liquid; for viscosity: Capillary tube (Ostwald / Ubbelohde) method; for mass density: Pycnometric method

C[N+](C)(C)C.[I-] [tetramethylammonium iodide] + O
Details	mass density [kg/m3]	viscosity [mPa·s]
c1 = 0.05	1001	0.805
c1 = 0.1	1003	0.812
c1 = 0.15	1009	0.819
